# Assay results taken from patent publication US11116781B2, “Composition, containing Loganin or a derivative thereof as an active ingredient for preventing, remedying, or treating female climacteric syndrome” (NINE B CO., LTD., priority 2016, dated 2021).
# Tests used:
# Format in all cases: in vivo
# estrogen receptor alpha = test: Estrogen receptor alpha mRNA and protein expression in uterus of climacteric mouse model; settings: OVX mouse, 10 mg/kg/day oral, 12 weeks; for decrease of the estrogen receptor alpha protein in uterus section: immunohistochemistry, vs. OVX negative control (FIG. 7b); for decrease of mRNA expression of the estrogen receptor alpha in uterus: vs. OVX negative control (FIG. 7a)
# Procedure: (§1) A 10-week-old ovariectomized ddY female mouse (OVX mouse) was used as a climacteric animal model to evaluate the in vivo efficacy of Loganin (ovariectomy after 8 weeks and 2 weeks of additional feeding for recovering conditions). Sham mouse group cut the abdomen open without ovariectomy (normal control group) was used as control group, and OVX mouse group in which physiological saline alone was administered to ovariectomized mice (negative control group) and SrCl2 mouse group in which a single compound, strontium chloride (SrCl2), was orally injected at a dose of 10 mg/kg/day (comparison group of […] compound administration) were used. 10-week-old Sham-operated and ovariectomized ddY female mice were purchased from Central Laboratory Animals Co. and transferred to a clean animal breeding area after a 1-week purifying period in the quarantine room of Experimental Animal Center in Ajou University. The weight of each mouse was measured and group separation was performed so that there was no statistically significant weight difference between the experimental groups. For the experiment, a test solution of Loganin was prepared as an aqueous solution and in order to bring in the laboratory animal center, a sterilization operation was carried out by irradiating with a gamma ray by a radiation irradiation professional company, Soyagreentec Co., Ltd. In the test group, Loganin was orally injected at a dose of 10 mg/kg/day for 12 weeks and blood estrogen level, estrogen receptor alpha expression level in uterus tissue, uterine size, body weight, and fat cell size of liver and abdominal adipose tissue were measured and analyzed.
# An ordinary female climacteric symptom results in a remarkable reduction in estrogen receptors in uterine tissue cells due to estrogen decrease. The estrogen receptor is activated by estradiol (17β-estradiol, E2) and has two classes of estrogen receptor alpha and estrogen receptor beta. In the uterus, the estrogen receptor alpha plays a more important role than the estrogen receptor beta, and during climacterium, a marked reduction in the estrogen receptor alpha causes contraction and degeneration of the uterus. The mRNA expression level of the estrogen receptor alpha gene and the estrogen receptor alpha protein expression level by immunohistochemistry of section of the uterus were analyzed after 12 weeks of administration of Loganin to climacteric mouse model followed by extirpating uterus.
# [1] = system: ovariectomized ddY female mouse (OVX mouse); test: Body weight and blood insulin and leptin (ELISA) in climacteric mouse model; settings: 10 mg/kg/day oral, 12 weeks; for increase in insulin in the blood / increase in leptin in the blood: ELISA; for increase in insulin in the blood: vs. OVX negative control (FIG. 9b); for increase in leptin in the blood: vs. OVX negative control (FIG. 9c); for weight gain (body weight): vs. OVX negative control (FIG. 9a)
# Procedure: as §1
# An ordinary female climacteric symptom results in weight gain due to estrogen decrease. The changes in body weight of mice and the presence of insulin and leptin, the metabolic hormone proteins, were measured by ELISA after 12 weeks of administration of Loganin to female climacteric mouse model.
# [2] = system: ovariectomized ddY female mouse (OVX mouse); test: Blood estradiol, progesterone and cortisol by ELISA in female climacteric (OVX) mouse model; settings: 10 mg/kg/day oral, 12 weeks; for decrease level of estradiol (17β-estradiol, E2) in the blood: vs. OVX negative control (FIG. 6a); for decrease level of progesterone in the blood: vs. OVX negative control (FIG. 6b)
# Procedure: as §1
# An ordinary female climacteric symptom results in a significant reduction in female hormones, i.e. estrogen and progesterone. The amount of estradiol (17β-estradiol, E2) and progesterone which are estrogen in the blood was measured by ELISA after 12 weeks of administration of Loganin to female climacteric mouse model.
# [3] = system: ovariectomized ddY female mouse (OVX mouse); test: Fat accumulation in liver and fat cell size in abdominal adipose tissue (H & E staining) in climacteric mouse model; settings: 10 mg/kg/day oral, 12 weeks; for fat accumulation in the liver: H & E staining (FIG. 10a); for increase in fat cell size in the abdominal adipose tissue: H & E staining (FIG. 10b)
# Procedure: as §1
# In general, when estrogen is reduced in female climacterium, new estrogen is produced from adipocytes to offset the estrogen deficiency. In this process, more fat cells are produced and can cause abdominal obesity. In other words, fat accumulation in the liver and fat cell size increase in abdominal adipose tissue are caused by the increase of insulin and leptin, which are hormone proteins related to lipid metabolism. Liver and abdominal adipose tissues of mice were extirpated and H & E stained after 12 weeks of administration of Loganin to female climacteric mouse model.
# [4] = system: ovariectomized ddY female mouse (OVX mouse); test: Uterine contraction and degeneration (shape, size, thickness, weight) in climacteric mouse model; settings: 10 mg/kg/day oral, 12 weeks; for outward shape and size of the uterus: vs. OVX negative control (FIG. 8a); for thickness of the H & E-stained uterine section: vs. OVX negative control (FIG. 8b); for weight of the uterus: vs. OVX negative control (FIG. 8c)
# Procedure: as §1
# An ordinary female climacteric symptom results in uterine contraction and degeneration due to estrogen decrease. The shape, size, thickness and weight of the uterus were observed after 12 weeks of administration of Loganin to female climacteric mouse model followed by extirpating uterus. When compared to normal Sham mouse without ovariectomy, the uterus was small (FIG. 8a), the thickness of the section was thin (FIG. 8b) and the uterine weight was light (FIG. 8c) in ovariectomized OVX mouse.
Compound,decrease of the estrogen receptor alpha protein in uterus section (estrogen receptor alpha),decrease of mRNA expression of the estrogen receptor alpha in uterus (estrogen receptor alpha),increase in insulin in the blood [1],increase in leptin in the blood [1],weight gain (body weight) [1],"decrease level of estradiol (17β-estradiol, E2) in the blood [2]",decrease level of progesterone in the blood [2],fat accumulation in the liver [3],increase in fat cell size in the abdominal adipose tissue [3],outward shape and size of the uterus [4],thickness of the H & E-stained uterine section [4],weight of the uterus [4]
COC(=O)C1=CO[C@@H](O[C@@H]2O[C@H](CO)[C@@H](O)[C@H](O)[C@H]2O)[C@@H]2[C@@H](C)[C@@H](O)C[C@H]12 [Loganin],significantly inhibited,significantly inhibited,significantly inhibited,significantly inhibited,significantly inhibited,significantly inhibited,significantly inhibited,remarkably inhibited,remarkably inhibited,significantly inhibited,significantly inhibited,significantly inhibited
"[Cl-].[Cl-].[Sr+2] [SrCl2, strontium chloride]",no difference with OVX mouse,no difference with OVX mouse,no difference with OVX mouse,no difference with OVX mouse,no difference with OVX mouse,no difference with OVX mouse,no difference with OVX mouse,no difference with OVX mouse,no difference with OVX mouse,no difference with OVX mouse,no difference with OVX mouse,no difference with OVX mouse
